Peptide text beside a SMILES is read from it.
What follows are molecules tested against T1, ATX1 AXH (residues A567–K689 of human ATX1) (Homo sapiens, UniProt P54253) (assay: ITC binding of CIC peptides to ATX1 AXH). Details: 25°C, 50 mM Tris-HCl pH 7, 50 mM NaCl, 2 mM TCEP, 0.041 mM AXH in cell, 0.410 mM peptide in syringe, averages of three measurements, read-out: dissociation constant (Kd).
T1 construct: Recombinant ATX1 AXH (residues A567–K689 of human ATX1); His6-GST (N, cleaved yes); made in house; host or cells: E. coli BL21(DE3)pLysS
T1 sequence (P54253 566-688 limits assumed): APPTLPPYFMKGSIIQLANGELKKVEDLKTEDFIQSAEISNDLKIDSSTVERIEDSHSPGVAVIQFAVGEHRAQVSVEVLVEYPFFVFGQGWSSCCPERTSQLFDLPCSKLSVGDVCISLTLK
Method: Binding affinities of AXH with CIC ligands were measured at 25°C by a MicroCal Omega VP-ITC (MicroCal Inc., Northampton, USA). Both protein and peptides buffers were 50 mM Tris-HCl pH 7, 50 mM NaCl, 2 mM TCEP. Solutions of 0.041 mM AXH in the cell were titrated by injections of a total of 283 µl of 0.410 mM peptide in the syringe in 21 aliquots. Data were processed with the software MicroCal Origin version 5.0 provided by the manufacturer. All dissociation constants were averages of three measurements.
Work on `CC(C)C[C@H](NC(=O)[C@H](Cc1ccccc1)NC(=O)[C@@H]1CCCN1C(=O)[C@@H](NC(=O)[C@H](CC(C)C)NC(=O)[C@H](CO)NC(=O)[C@H](Cc1c[nH]cn1)NC(=O)[C@H](Cc1c[nH]c2ccccc12)NC(=O)[C@@H]1CCCN1C(=O)[C@H](Cc1ccccc1)NC(=O)[C@@H](N)C(C)C)C(C)C)C(=O)NCC(=O)N1CCC[C@H]1C(=O)N[C@@H](CO)C(=O)N[C@@H](CCC(N)=O)C(=O)O` [A45] (H-VFPWHSLVPFLGPSQ-OH) yielded a Kd of 20 nM. In the case of `CC(C)C[C@H](NC(=O)[C@H](Cc1ccccc1)NC(=O)[C@@H]1CCCN1C(=O)[C@@H](NC(=O)[C@H](CC(C)C)NC(=O)[C@H](CO)NC(=O)[C@H](Cc1c[nH]cn1)NC(=O)[C@H](Cc1c[nH]c2ccccc12)NC(=O)[C@@H]1CCCN1)C(C)C)C(=O)N[C@@H](C)C(=O)N1CCC[C@H]1C(=O)N[C@@H](CO)C(=O)N[C@@H](CCC(N)=O)C(=O)O` [CICp] (H-PWHSLVPFLAPSQ-OH), the Kd is reported as 8000 nM. In the case of `CC(C)C[C@H](NC(=O)[C@H](Cc1ccccc1)NC(=O)[C@@H]1CCCN1C(=O)[C@@H](NC(=O)[C@H](CC(C)C)NC(=O)[C@H](CO)NC(=O)[C@H](Cc1c[nH]cn1)NC(=O)[C@H](Cc1c[nH]c2ccccc12)NC(=O)[C@@H]1CCCN1C(=O)[C@H](C)NC(=O)[C@@H](N)C(C)C)C(C)C)C(=O)N[C@@H](C)C(=O)N1CCC[C@H]1C(=O)N[C@@H](CO)C(=O)N[C@@H](CCC(N)=O)C(=O)O` [F35] (H-VAPWHSLVPFLAPSQ-OH), the Kd is reported as 30 nM. Molecule `CC(C)C[C@H](NC(=O)[C@H](C)NC(=O)[C@@H]1CCCN1C(=O)[C@@H](NC(=O)[C@H](CC(C)C)NC(=O)[C@H](CO)NC(=O)[C@H](Cc1c[nH]cn1)NC(=O)[C@H](Cc1c[nH]c2ccccc12)NC(=O)[C@@H]1CCCN1C(=O)[C@H](Cc1ccccc1)NC(=O)[C@@H](N)C(C)C)C(C)C)C(=O)N[C@@H](C)C(=O)N1CCC[C@H]1C(=O)N[C@@H](CO)C(=O)N[C@@H](CCC(N)=O)C(=O)O` [F43] (H-VFPWHSLVPALAPSQ-OH) has a Kd of 60 nM. `CC(C)C[C@H](NC(=O)[C@H](Cc1ccccc1)NC(=O)[C@@H]1CCCN1C(=O)[C@@H](NC(=O)[C@H](CC(C)C)NC(=O)[C@H](CO)NC(=O)[C@H](C)NC(=O)[C@H](Cc1c[nH]c2ccccc12)NC(=O)[C@@H]1CCCN1C(=O)[C@H](Cc1ccccc1)NC(=O)[C@@H](N)C(C)C)C(C)C)C(=O)N[C@@H](C)C(=O)N1CCC[C@H]1C(=O)N[C@@H](CO)C(=O)N[C@@H](CCC(N)=O)C(=O)O` [H38] (H-VFPWASLVPFLAPSQ-OH) gave a Kd of 50 nM. In the case of `CC(C)C[C@H](NC(=O)[C@H](Cc1ccccc1)NC(=O)[C@@H]1CCCN1C(=O)[C@@H](NC(=O)[C@H](C)NC(=O)[C@H](CO)NC(=O)[C@H](Cc1c[nH]cn1)NC(=O)[C@H](Cc1c[nH]c2ccccc12)NC(=O)[C@@H]1CCCN1C(=O)[C@H](Cc1ccccc1)NC(=O)[C@@H](N)C(C)C)C(C)C)C(=O)N[C@@H](C)C(=O)N1CCC[C@H]1C(=O)N[C@@H](CO)C(=O)N[C@@H](CCC(N)=O)C(=O)O` [L40] (H-VFPWHSAVPFLAPSQ-OH), the Kd is reported as 500 nM. In the case of `CC(C)C[C@H](NC(=O)[C@H](CO)NC(=O)[C@H](Cc1c[nH]cn1)NC(=O)[C@H](Cc1c[nH]c2ccccc12)NC(=O)[C@@H]1CCCN1C(=O)[C@H](Cc1ccccc1)NC(=O)[C@@H](N)C(C)C)C(=O)N[C@H](C(=O)N1CCC[C@H]1C(=O)N[C@@H](Cc1ccccc1)C(=O)N[C@@H](C)C(=O)N[C@@H](C)C(=O)N1CCC[C@H]1C(=O)N[C@@H](CO)C(=O)N[C@@H](CCC(N)=O)C(=O)O)C(C)C` [L44] (H-VFPWHSLVPFAAPSQ-OH), the Kd is reported as 50 nM. `CC(C)C[C@H](NC(=O)[C@H](Cc1ccccc1)NC(=O)[C@@H]1CCCN1C(=O)[C@@H](NC(=O)[C@H](CC(C)C)NC(=O)[C@H](CO)NC(=O)[C@H](Cc1c[nH]cn1)NC(=O)[C@H](Cc1c[nH]c2ccccc12)NC(=O)[C@@H]1CCCN1C(=O)[C@H](Cc1ccccc1)NC(=O)[C@@H](N)C(C)C)C(C)C)C(=O)N[C@@H](C)C(=O)N1CCC[C@H]1C(=O)N[C@@H](CO)C(=O)N[C@@H](CCC(N)=O)C(=O)O` [L-CICp] (H-VFPWHSLVPFLAPSQ-OH) was tested, and the Kd was 30 nM.

Same assay, conditions: 25°C, 50 mM Tris-HCl pH 7, 50 mM NaCl, 2 mM TCEP, averages of three measurements, read-out: dissociation constant (Kd)
Molecule `CC(C)C[C@H](NC(=O)[C@H](Cc1ccccc1)NC(=O)[C@@H]1CCCN1C(=O)[C@@H](NC(=O)[C@H](CC(C)C)NC(=O)[C@H](CO)NC(=O)[C@H](Cc1c[nH]cn1)NC(=O)[C@H](Cc1c[nH]c2ccccc12)NC(=O)[C@@H]1CCCN1C(=O)[C@H](Cc1ccccc1)NC(=O)[C@@H](N)C(C)C)C(C)C)C(=O)N[C@@H](C)C(=O)N1CCC[C@H]1C(=O)N[C@@H](CO)C(=O)N[C@@H](CCC(N)=O)C(=O)O` [L-CICp] (H-VFPWHSLVPFLAPSQ-OH) has a Kd of roughly 33 nM.

Reference: PMC3796545, “Protein-Protein Interactions as a Strategy towards Protein-Specific Drug Design: The Example of Ataxin-1” (PLoS ONE, 2013)
